According to US20090149494A1, “THERAPEUTIC USE OF IMIDAZO[1,2-a]PYRIDINE-2-CARBOXAMIDE DERIVATIVES” (SANOFI-AVENTIS, priority 2006, published 2009):

Experiments:
[1] = biological target: T1, murine Nurr1 receptor (Mus musculus, UniProt Q06219); test: In vitro activity on N2A cells (NBRE-luciferase reporter); assay type: cell-based; settings: N2A-8NBRE-luciferase cells, 24 hours incubation
T1 construct: endogenously expressing the murine Nurr1 receptor; host or cells: Neuro-2A (N2A) mouse neuroblastoma cells stably transfected with 8NBRE-luciferase
T1 sequence (Q06219 whole entry): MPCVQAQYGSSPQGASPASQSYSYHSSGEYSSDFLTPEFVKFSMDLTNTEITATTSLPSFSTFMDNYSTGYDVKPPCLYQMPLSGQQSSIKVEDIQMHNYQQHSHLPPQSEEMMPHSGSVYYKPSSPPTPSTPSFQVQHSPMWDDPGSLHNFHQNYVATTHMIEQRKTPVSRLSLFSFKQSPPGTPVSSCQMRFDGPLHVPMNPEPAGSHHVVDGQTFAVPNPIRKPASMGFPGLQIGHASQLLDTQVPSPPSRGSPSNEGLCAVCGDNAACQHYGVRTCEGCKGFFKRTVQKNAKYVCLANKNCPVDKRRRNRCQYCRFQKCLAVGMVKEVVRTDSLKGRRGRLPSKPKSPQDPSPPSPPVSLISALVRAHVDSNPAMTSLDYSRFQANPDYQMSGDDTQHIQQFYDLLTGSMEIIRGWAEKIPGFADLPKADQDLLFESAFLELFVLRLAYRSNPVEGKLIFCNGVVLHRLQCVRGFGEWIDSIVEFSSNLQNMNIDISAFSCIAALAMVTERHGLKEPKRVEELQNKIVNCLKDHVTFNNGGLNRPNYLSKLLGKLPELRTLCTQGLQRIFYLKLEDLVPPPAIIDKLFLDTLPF
Description: The tests consisted in evaluating the in vitro activity of the compounds of the invention on a cell line (N2A) endogenously expressing the murine Nurr1 receptor and stably transfected with the NOT binding response element (NBRE) coupled to the luciferase reporter gene. The EC50 values are between 0.01 and 1000 nM. The tests were performed according to the procedure described hereinbelow.
The cell line Neuro-2A is obtained from a standard commercial source (ATCC). The clone Neuro-2A was obtained from a spontaneous tumor originating from a strain of albino mice A by R. J Klebe et al. This line Neuro-2A is then stably transfected with 8NBRE-luciferase. The N2A-8NBRE cells are cultured to the point of confluence in 75 cm^2 culture flasks containing DMEM supplemented with 10% fetal calf serum, 4.5 g/L of glucose and 0.4 mg/ml of geneticin. After culturing for one week, the cells are recovered with 0.25% trypsin for 30 seconds and then resuspended in DMEM without phenol red, containing 4.5 g/L of glucose and 10% Hyclone defatted serum, and placed in white, transparent-based 96-well plates. The cells are deposited at a rate of 60 000 per well in 75 μL for 24 hours before adding the products. The products are applied in 25 μL and incubated for a further 24 hours. […] The plates are then measured in a microplate luminescence counter, after having been sealed with an adhesive film. […]

[2] = tested on: human NOT receptor; test: Binding to the human NOT receptor by SPR (Biacore); settings: immobilized GST-NOT (NOT-FL) and His-Thr-NOT 329-598, 3.75 to 0.1 μM, 4° C.
Description: The direct binding between compounds of the invention and the human NOT receptor was evaluated using the SPR (surface plasmon resonance) technique. In this test, the protein is immobilized covalently on the matrix and the test molecule is injected into the chamber containing the sensor chip. The signal is directly proportional to the amount of product bound to the protein. The binding tests were performed in a Biacore S51 machine (Biacore Inc., Piscataway N.J.). The entire GST-NOT protein (NOT-FL) was supplied by Invitrogen (PV3265). The domain for binding to the NOT ligand (His-Thr-NOT 329-598) was expressed and purified as described in Nature 423, 555-560. The two proteins, diluted to a concentration of 20 μg/ml in pH 5.0 acetate buffer containing 5 mM of DTT, were immobilized on a surface of carboxymethyl 5′ dextran (CM5 sensor chip, Biacore Inc.) via amine coupling according to the protocol recommended by Biacore, eluting with an HBS-N buffer (10 mM HEPES, 0.15 M NaCl, 3 mM EDTA, pH 7.4). Approximately 10 000-15 000 resonance units (R^U) of the proteins are captured on the surface of the sensor chip CM5. […] The dissociation was recorded for 5 minutes without any other surface regeneration procedure. […]

SMILES	EC50 [1]	affinity (classified by maximum binding level and kinetic parameters of binding) [2]
O=C(Nc1ccccc1)c1cn2ccccc2n1 [compound 1]	5.5 nM	moderate affinity
O=C(Nc1ccc(F)cc1)c1cn2cc(Cl)ccc2n1 [compound 2]	17 nM	–
